US20260284069A1, “PARG INHIBITORY COMPOUNDS” (FoRx Therapeutics AG, priority 2023, published 2026)
Where a name gives a salt, the structure may show the parent alone. Read-outs that look alike come from different tables or passages of the source.

How the values were obtained:
human PARG = biological target: T1, human PARG (Homo sapiens, UniProt Q86W56, A967T/C963S/D927K/H446G/I916T/L447S/L473S/M841I/N479S/R811K/S802A/S858P/T924D); assay: PARG enzymatic IC50 assay; type: biochemical; settings: PARG protein, 2 hours incubation; substrate ADP-ribose-pNP, absorbance 405 nm; read-out: IC50 determined in PARG enzymatic assay
T1 construct: human PARG (448-976 [H446G, L447S, L473S); 6His-TwinStrep (protease-cleavable) (N, cleaved yes); Gly-Ser at positions 446-447, given as H446G, L447S; host or cells: E. coli BL21 (DE3)
T1 sequence (Q86W56 446-976 H446G/L447S/L473S/N479S/S802A/R811K/M841I/S858P/I916T/T924D/D927K/C963S/A967T): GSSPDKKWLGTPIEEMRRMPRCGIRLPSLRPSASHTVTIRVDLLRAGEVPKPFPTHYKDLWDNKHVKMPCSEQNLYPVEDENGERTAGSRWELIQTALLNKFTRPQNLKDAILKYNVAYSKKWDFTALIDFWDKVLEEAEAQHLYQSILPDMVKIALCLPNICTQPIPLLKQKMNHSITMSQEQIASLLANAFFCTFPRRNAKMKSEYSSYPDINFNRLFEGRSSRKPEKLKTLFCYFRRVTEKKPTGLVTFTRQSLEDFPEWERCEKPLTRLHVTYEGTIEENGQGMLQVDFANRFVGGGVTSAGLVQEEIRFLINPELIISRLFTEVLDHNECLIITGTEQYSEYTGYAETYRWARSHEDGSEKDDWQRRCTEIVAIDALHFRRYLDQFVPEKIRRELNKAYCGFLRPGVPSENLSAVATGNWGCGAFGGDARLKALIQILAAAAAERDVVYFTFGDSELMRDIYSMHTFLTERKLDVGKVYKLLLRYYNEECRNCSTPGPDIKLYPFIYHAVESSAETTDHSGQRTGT
Protocol: A codon optimized gene encoding human PARG (448-976 [H446G, L447S, L473S, N479S, S802A, R811K, M841I, S858P, I916T, T924D, D927K, C963S, A967T]) was synthesized by Genscript, and cloned into pET15b (NcoI/BamHI) with an N-terminal, […] protease cleavable 6His-TwinStrep tag. Expression of the protein in E. coli BL21 (DE3) was induced by addition of 0.2 mM IPTG to a shake flask culture grown to OD600=0.8 at 37° C. Growth was allowed to continue at 30° C. for a further 20 hours before harvesting by centrifugation and storage of the cell pellet at −80° C.
Protein was purified by IMAC and SEC: frozen cell pellets (typically 40 g wet weight) were resuspended by homogenization in 5 volumes buffer A (25 mM Tris/HCl pH 8.0, 200 mM NaCl, 2 mM DTT), supplemented with 1 mg of DNase I from bovine pancreas (Sigma-Aldrich) and protease inhibitors (Roche Complete™ EDTA-free protease inhibitor tablet), and lysed by passage through a Constant Systems BasicZ homogenizer. The lysate was clarified by centrifugation for 60 minutes at 25,000 g, 4° C., and the lysate supernatant was loaded onto 5 ml StrepTrap HP (Cytiva) pre-equilibrated with buffer A. The column was washed with buffer A (~10 CV), then buffer B containing 1M KCl (~5 CV), and then the protein was eluted with buffer A containing 2.5 mM d-Desthiobiotin. Pooled fractions containing 6HisTwinStrep-TEV-hPARG were incubated with TEV protease overnight at 4° C. hPARG was separated from uncleaved material and […] protease through gel filtration with Superdex75 sizing column (GE Healthcare) pre-equilibrated with SEC buffer (15 mM Tris/HCl pH 8.5, 100 mM NaCl, 2 mM DTT). Pooled fractions containing pure hPARG were concentrated using a 10 k MWCO spin concentrator (VivaSpin) to 10 mg/mL, and then either used immediately for crystallisation or snap-frozen in liquid nitrogen for storage at −80° C.
PARG enzyme as incubated with compound or vehicle (DMSO) for 2 hours in a 384 well plate. After adding the PARG substrate ADP-ribose-pNP, the plate was read for absorbance intensity at 405 nm. The vehicle (DMSO) with high absorbance intensity represents no inhibition of enzymatic reaction while the low control (no enzyme) with low absorbance intensity represents full inhibition of enzymatic reaction.
• hPARG: Peak Protein, 30 nM • Substrate: ADP-pNP, 800 μM, Jena Bioscience catalog #NU-955 • Reaction time: 60 minutes • Assay buffer: 50 mM Tris-HCl pH 8.0, 100 mM NaCl, 2 mM DTT • Temperature: 30° C. • Total volume: 30 μL
• 0% inhibition control: DMSO • 100% inhibition control: No enzyme
The protocol that was used for enzyme reaction and detection is as follows: • 1. Transfer 100 nL of the final concentration of test compounds or vehicle (DMSO) to the appropriate wells of a microtiter plate. • 2. Centrifuge the plate at 1000 rpm for 1 minute. • 3. Transfer 14.6 μL of 2× final concentration of enzyme in assay buffer or assay buffer alone to the appropriate wells. • 4. Centrifuge the plate at 1000 rpm for 1 minute. • 5. Incubate the plate at room temperature for 15 minutes or 2 hours. • 6. Transfer 15.4 μL of 2× substrate in assay buffer to all the test wells. • 7. Centrifuge the plate at 1000 rpm for 1 minute. • 8. Read the plate on a plate reader (e.g., Spark Tecan).

NCIH-460 cells = assay: Cellular viability assay (NCIH-460, PARG-inhibition sensitive cell line); type: cell-based; settings: Cell Titer-Glo, read-out: EC50 determined in NCIH-460 cells, cellular viability assay
Protocol: (§1) NCIH-460 as a PARG-inhibition sensitive cell line and U2OS as PARG-inhibition insensitive cell line were plated at 1000 cells/well and 2000 cells/well, respectively, in 96-well white plates with clear flat bottom. After 24 hours, the compounds were added with the Tecan digital dispenser (D300e), in duplicates. The outer wells of the plate were excluded. After 96 hours of incubation, 150 μl of the growth medium were removed and 50 μl of Cell Titer-Glo (Promega) were added per well. Following an incubation of 10 minutes, luminescence was read using a plate reader (Tecan). Averaged values of the samples were normalized to DMSO treated control samples. Curves were fit as % of the control vs. log of the compound concentration using a 4 parameter log-logistic function: […]

U2OS cells = assay: Cellular viability assay (U2OS, PARG-inhibition insensitive cell line); type: cell-based; settings: 96 hours incubation, Cell Titer-Glo, read-out: EC50 determined in U2OS cells, cellular viability assay
Protocol: as §1

PARG = biological target: T2, PARG (Homo sapiens, UniProt Q86W56); assay: Cellular PAR chain assay; type: cell-based; settings: U2OS cells, 1 hour compound pretreatment then 1-hour TMZ treatment; % PAR chain positive cells by flow cytometry; read-out: EC50 determined in cellular PAR chain assay
T2 construct: endogenous in cells; host or cells: U2OS
T2 sequence (Q86W56 whole entry): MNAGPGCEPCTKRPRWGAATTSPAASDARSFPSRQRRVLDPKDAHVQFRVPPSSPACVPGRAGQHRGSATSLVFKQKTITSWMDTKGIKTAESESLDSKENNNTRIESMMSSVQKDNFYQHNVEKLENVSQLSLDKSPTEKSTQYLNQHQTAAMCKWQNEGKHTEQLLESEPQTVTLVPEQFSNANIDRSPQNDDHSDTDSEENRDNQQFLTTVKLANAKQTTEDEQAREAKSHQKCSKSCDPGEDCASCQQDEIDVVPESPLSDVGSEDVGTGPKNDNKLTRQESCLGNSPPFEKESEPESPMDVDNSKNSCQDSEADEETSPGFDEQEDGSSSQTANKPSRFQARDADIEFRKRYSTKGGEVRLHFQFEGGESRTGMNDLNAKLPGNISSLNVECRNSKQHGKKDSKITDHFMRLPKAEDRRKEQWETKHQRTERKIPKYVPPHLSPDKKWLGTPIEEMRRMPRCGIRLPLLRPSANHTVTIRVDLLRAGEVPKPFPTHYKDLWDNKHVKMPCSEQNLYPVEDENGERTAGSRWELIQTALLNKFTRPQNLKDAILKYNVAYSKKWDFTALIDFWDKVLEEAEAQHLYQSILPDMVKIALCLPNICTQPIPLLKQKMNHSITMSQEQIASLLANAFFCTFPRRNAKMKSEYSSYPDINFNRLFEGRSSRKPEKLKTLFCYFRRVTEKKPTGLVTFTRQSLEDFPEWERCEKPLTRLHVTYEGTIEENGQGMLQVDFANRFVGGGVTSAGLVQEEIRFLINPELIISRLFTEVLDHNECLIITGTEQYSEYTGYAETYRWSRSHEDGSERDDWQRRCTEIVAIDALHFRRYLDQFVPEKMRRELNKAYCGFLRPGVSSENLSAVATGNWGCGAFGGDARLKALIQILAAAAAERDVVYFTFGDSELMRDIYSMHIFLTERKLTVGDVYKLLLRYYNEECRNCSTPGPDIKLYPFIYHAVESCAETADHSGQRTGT
Protocol: The ability of compounds to inhibit PARG in response to DNA damage, was assessed with U2OS cells pretreated with the compounds for 1 hour, following a 1-hour treatment with the DNA alkylating agent temozolomide (TMZ). […] The cells were incubated for 2 hours at room temperature with a mouse monoclonal antibody against poly (ADP) ribose (PAR) polymer. The cells were washed and incubated with an anti-mouse Alexa-488 conjugated secondary antibody for 1 hour at room temperature. Propidium iodide staining was used to determine DNA content in the cells (staining at 4° C. overnight). The fluorescence intensity of the cells was assessed by flow cytometry (Cytoflex from Beckmann) and the percentage of PAR chain positive cells (gated in relation to TMZ+DMSO treated control) was determined. PAR chain positive cells % were fit against the concentration of the compound using a 4 parameter log-logistic function, generating PAR chain EC50 values: […]

[1] = Homo sapiens, NCI-H460, 96 h, 96 hours incubation

IC50 (human PARG) [µM]	EC50 (PARG) [µM]	EC50 (U2OS cells; Homo sapiens, U2OS, 96 h) [µM]	EC50 (U2OS cells) [µM]	Compound	EC50 (NCIH-460 cells; Homo sapiens, NCI-H460, 96 hours incubation) [µM]	EC50 (U2OS cells; Homo sapiens) [µM]	EC50 (NCIH-460 cells; [1]) [µM]	EC50 (NCIH-460 cells; 96 hours incubation) [µM]
0.016	0.005	3.59		C[C@H]1CN(c2cc(S(=O)(=O)NC3(C)CC3)cn3c(-c4nnc(C(F)F)s4)nc(F)c23)C[C@H](C)N1 [Example 13, 3-(5-(difluoromethyl)-1,3,4-thiadiazol-2-yl)-8-((3S,5S)-3,5-dimethylpiperazin-1-yl)-1-fluoro-N-(1-methylcyclopropyl)imidazo[1,5-a]pyridine-6-sulfonamide]			0.035	
0.015		> 11.9		CC1(C)CN(c2cc(S(=O)(=O)NC3(C)CC3)cn3c(-c4nnc(C(F)F)s4)ncc23)CC(CO)N1 (single isomer, unassigned) [Example 14a, (R or S)-3-(5-(difluoromethyl)-1,3,4-thiadiazol-2-yl)-8-(5-(hydroxymethyl)-3,3-dimethylpiperazin-1-yl)-N-(1-methylcyclopropyl)imidazo[1,5-a]pyridine-6-sulfonamide]				1.79
			> 20	CN=S1(=O)CCN(c2cc(S(=O)(=O)NC3(C)CC3)cn3c(-c4nnc(C(F)F)s4)ncc23)CC1C (stereo not drawn) [Example 5, (Trans or Cis)-3-(5-(difluoromethyl)-1,3,4-thiadiazol-2-yl)-8-(2-methyl-1-(methylimino)-1-oxido-116-thiomorpholino)-N-(1-methylcyclopropyl)imidazo[1,5-a]pyridine-6-sulfonamide]				0.208
0.012			> 11.4	CC1(C)CN(c2cc(S(=O)(=O)NC3(C)CC3)cn3c(-c4nnc(C(F)F)s4)ncc23)CC(CO)N1 (single isomer, unassigned) [Example 14b, (S or R)-3-(5-(difluoromethyl)-1,3,4-thiadiazol-2-yl)-8-(5-(hydroxymethyl)-3,3-dimethylpiperazin-1-yl)-N-(1-methylcyclopropyl)imidazo[1,5-a]pyridine-6-sulfonamide]				0.0774
0.011	0.006	3.87		CC1(NS(=O)(=O)c2cc(C3=CCNCC3)c3c(C(F)(F)F)nc(-c4nnc(C(F)F)s4)n3c2)CC1 [Example 12, 3-(5-(difluoromethyl)-1,3,4-thiadiazol-2-yl)-N-(1-methylcyclopropyl)-8-(1,2,3,6-tetrahydropyridin-4-yl)-1-(trifluoromethyl)imidazo[1,5-a]pyridine-6-sulfonamide formate]			0.094	
0.011		> 20		CC1CN(c2cc(S(=O)(=O)NC3(C)CC3)cn3c(-c4nnc(C(F)F)s4)ncc23)CC2(CC2)N1 (centres unmarked) [Example 10, 3-(5-(difluoromethyl)-1,3,4-thiadiazol-2-yl)-8-(5-methyl-4,7-diazaspiro[2.5]octan-7-yl)-N-(1-methylcyclopropyl)imidazo[1,5-a]pyridine-6-sulfonamide formate]			0.418	
0.011		13.3		CC1(NS(=O)(=O)c2cc(C3=CCNCC3(F)F)c3c(Cl)nc(-c4nnc(C(F)F)s4)n3c2)CC1 [Example 2, 1-chloro-8-(3,3-difluoro-1,2,3,6-tetrahydropyridin-4-yl)-3-(5-(difluoromethyl)-1,3,4-thiadiazol-2-yl)-N-(1-methylcyclopropyl)imidazo[1,5-a]pyridine-6-sulfonamide]			0.199	
0.012		> 11		COC[C@H]1CN(c2cc(S(=O)(=O)NC3(C)CC3)cn3c(-c4nnc(C(F)F)s4)ncc23)C[C@H](COC)N1 [Example 3, 8-((3R,5R)-3,5-bis(methoxymethyl)piperazin-1-yl)-3-(5-(difluoromethyl)-1,3,4-thiadiazol-2-yl)-N-(1-methylcyclopropyl)imidazo[1,5-a]pyridine-6-sulfonamide formate]			0.019	
0.011		12.6		C[C@H]1CN(c2cc(S(=O)(=O)NC3(C)CC3)cn3c(-c4nnc(C(F)F)s4)cnc23)C[C@H](C)N1 [Example 1, 3-(5-(difluoromethyl)-1,3,4-thiadiazol-2-yl)-8-((3S,5S)-3,5-dimethylpiperazin-1-yl)-N-(1-methylcyclopropyl)imidazo[1,2-a]pyridine-6-sulfonamide formate]			0.07	
0.011		9.52		CC1(C)CN(c2cc(S(=O)(=O)NC3(C)CC3)cn3c(-c4nnc(C(F)F)s4)ncc23)CC(CO)N1 (centres unmarked) [Example 14, 3-(5-(difluoromethyl)-1,3,4-thiadiazol-2-yl)-8-(5-(hydroxymethyl)-3,3-dimethylpiperazin-1-yl)-N-(1-methylcyclopropyl)imidazo[1,5-a]pyridine-6-sulfonamide]			0.094	
0.011		> 20		CN=S1(=O)CCN(c2cc(S(=O)(=O)NC3(C)CC3)cn3c(-c4nnc(C(F)F)s4)ncc23)CC1C (stereo not drawn) [Example 4, (Cis or Trans)-3-(5-(difluoromethyl)-1,3,4-thiadiazol-2-yl)-8-(2-methyl-1-(methylimino)-1-oxido-116-thiomorpholino)-N-(1-methylcyclopropyl)imidazo[1,5-a]pyridine-6-sulfonamide]			0.111	

Compound	IC50 (human PARG) [µM]	EC50 (PARG) [µM]	EC50 (U2OS cells; Homo sapiens, U2OS, 96 h) [µM]	EC50 (U2OS cells) [µM]	EC50 (NCIH-460 cells; Homo sapiens, NCI-H460, 96 hours incubation) [µM]	EC50 (U2OS cells; Homo sapiens) [µM]	EC50 (NCIH-460 cells; [1]) [µM]	EC50 (NCIH-460 cells; 96 hours incubation) [µM]
CC1(NS(=O)(=O)c2cc(C3=CCNCC3)c3c(C4CC4)nc(-c4nnc(C(F)F)s4)n3c2)CC1 [Example 11, 1-cyclopropyl-3-(5-(difluoromethyl)-1,3,4-thiadiazol-2-yl)-N-(1-methylcyclopropyl)-8-(1,2,3,6-tetrahydropyridin-4-yl)imidazo[1,5-alpyridine-6-sulfonamide formate]	0.016	0.009			0.074	1720		
